Assays:
TNF-α = assay: in vivo imaging of TNF-α expression, CIA transgenic TNF-luc mice; parameters: species or system BALB/c transgenic TNF-luc mice; conditions: day 36; Adalimumab 8 mg/kg, mPEG-SC20k-HM-3 20 mg/kg
Description: […] After the mice are lightly anesthetized with ether, the mice are fixed within 5-20 min and put into an in vivo imager, the imager is covered with an instrument lid, on-fluro and om-photo names in the desktop imaging interface of the computer are clicked, and the expose button is clicked to complete the fluorescence and white light photos of mice in vivo imaging. The specific imaging principle, operation steps, image processing and output are the same as those in the previous embodiment.

[1] = system: AIA transgenic TNF-luc mice; assay: adjuvant-induced arthritis in transgenic TNF-luc mice (swelling, scores, weight, HE staining); assay type: in vivo, BALB/c transgenic TNF-luc mice; parameters: right ankle swelling / left ankle swelling / left toe swelling / right toe swelling / changes of weight (added value): unit not given here; conditions: Adalimumab 8 mg/kg
Description: 8 animals are randomly divided into 4 groups (n=2), a normal group, a model group, a positive drug group and a test group. On day 0, the initial left and right ankle thicknesses, initial left and right foot palm thicknesses and initial left and right toe thicknesses of each group of mice are measured. On day 0, 50 μL/mouse complete Freund's adjuvant is injected into the bottom of the left toe of each group of mice, and the treatment is started after secondary inflammation appears in the right foot of each group of mice on day 17. On day 17, the normal group and the model group are hypodermically injected with 0.9% normal saline (0.2 mL/20 g of body weight), once every 2 days, 7 times in total. The positive drug Adalimumab group is hypodermically injected with Adalimumab (8 mg/kg of body weight), once every 15 days, once in total. The test group is hypodermically injected with mPEG-SC20k-HM-3 (20 mg/kg of body weight), once every 2 days, 7 times in total. The treatment lasts for 15 days. Then, medication is stopped for observation for one week, and the mice are killed one week later.
On day 0, the initial ankle widths, foot palm widths and toe thicknesses of left and right feet are measured with a vernier caliper as initial values. Every 2 days, the left and right ankle widths, foot palm widths and toe thicknesses of each group of mice are measured separately with the vernier caliper, and compared with the initial values to calculate the changes in the swelling degree.
The joints of the mouse paw are observed with naked eyes, and the joints are scored every 2 days from day 17. Scoring is performed in terms of level 0 to level 4, 5 levels in total.
After the secondary inflammation appears, systemic scoring is performed every 2 days.
Changes of expression of TNF-α and IL-6 are analyzed by HE staining and immunohistochemistry in the ankle joint, spleen and thymus of the mice. Observation and photographing are performed under the FOVs of ×200 and ×400 times respectively, 5 FOVs are taken randomly for each picture, and data statistics is performed.

[2] = 0 d, before treatment (starts day 17), mPEG-SC20k-HM-3 20 mg/kg groups
[3] = 1 d, before treatment (starts day 17), mPEG-SC20k-HM-3 20 mg/kg groups
[4] = 3 d, before treatment (starts day 17), mPEG-SC20k-HM-3 20 mg/kg groups
[5] = 6 d, before treatment (starts day 17), mPEG-SC20k-HM-3 20 mg/kg groups
[6] = 9 d, before treatment (starts day 17), mPEG-SC20k-HM-3 20 mg/kg groups
[7] = 12 d, before treatment (starts day 17), mPEG-SC20k-HM-3 20 mg/kg groups
[8] = 16 d, before treatment (starts day 17), mPEG-SC20k-HM-3 20 mg/kg groups
[9] = 17 d (treatment starts), mPEG-SC20k-HM-3 20 mg/kg sc
[10] = 19 d, mPEG-SC20k-HM-3 20 mg/kg sc
[11] = 20 d, mPEG-SC20k-HM-3 20 mg/kg sc
[12] = 22 d, mPEG-SC20k-HM-3 20 mg/kg sc
[13] = 23 d, mPEG-SC20k-HM-3 20 mg/kg sc
[14] = 25 d, mPEG-SC20k-HM-3 20 mg/kg sc
[15] = 26 d, mPEG-SC20k-HM-3 20 mg/kg sc
[16] = 28 d, mPEG-SC20k-HM-3 20 mg/kg sc
[17] = 29 d, mPEG-SC20k-HM-3 20 mg/kg sc
[18] = 31 d, mPEG-SC20k-HM-3 20 mg/kg sc
[19] = 32 d, mPEG-SC20k-HM-3 20 mg/kg sc

Substance: Adalimumab [reference compound]
- in vivo fluorescence densities (TNF-α): 20.76±4.43 10^5
- changes of weight (added value) [1, 2]: 0.00 ± 0.00
- left ankle swelling [1, 2]: 0.000 ± 0.000
- left foot (palm) swelling [1, 2]: 0.000 ± 0.000
- left toe swelling [1, 2]: 0.000 ± 0.000
- left ankle swelling [1, 3]: 0.239 ± 0.033
- left foot (palm) swelling [1, 3]: 0.236 ± 0.062
- left toe swelling [1, 3]: 0.326 ± 0.028
- changes of weight (added value) [1, 4]: 0.07 ± 0.15
- left ankle swelling [1, 4]: 0.262 ± 0.071
- left foot (palm) swelling [1, 4]: 0.289 ± 0.016
- left toe swelling [1, 4]: 0.323 ± 0.086
- changes of weight (added value) [1, 5]: 0.09 ± 0.54
- left ankle swelling [1, 5]: 0.226 ± 0.023
- left foot (palm) swelling [1, 5]: 0.272 ± 0.057
- left toe swelling [1, 5]: 0.272 ± 0.076
- changes of weight (added value) [1, 6]: 0.07 ± 0.25
- left ankle swelling [1, 6]: 0.260 ± 0.020
- left foot (palm) swelling [1, 6]: 0.302 ± 0.003
- left toe swelling [1, 6]: 0.298 ± 0.122
- changes of weight (added value) [1, 7]: 0.25 ± 0.83
- left ankle swelling [1, 7]: 0.264 ± 0.018
- left foot (palm) swelling [1, 7]: 0.295 ± 0.021
- left toe swelling [1, 7]: 0.328 ± 0.079
- changes of weight (added value) ([1]; 15 d, before treatment (starts day 17), mPEG-SC20k-HM-3 20 mg/kg groups): 0.16 ± 0.66
- left ankle swelling [1, 8]: 0.265 ± 0.021
- left foot (palm) swelling [1, 8]: 0.271 ± 0.064
- left toe swelling [1, 8]: 0.328 ± 0.065
- right ankle swelling [1, 8]: 0.010 ± 0.006
- right foot palm swelling [1, 8]: 0.010 ± 0.006
- right toe swelling [1, 8]: 0.011 ± 0.033
- joint index score [1, 9]: 7.50 ± 0.70
- whole body (systemic) score [1, 9]: 7.00 ± 1.40
- changes of weight (added value) [1, 10]: 0.44 ± 0.60
- left ankle swelling [1, 10]: 0.254 ± 0.018
- left foot (palm) swelling [1, 10]: 0.247 ± 0.078
- left toe swelling [1, 10]: 0.311 ± 0.033
- right ankle swelling [1, 10]: 0.010 ± 0.014
- right foot palm swelling [1, 10]: 0.029 ± 0.001
- right toe swelling [1, 10]: 0.012 ± 0.037
- joint index score [1, 11]: 7.50 ± 0.70
- whole body (systemic) score [1, 11]: 6.50 ± 2.10
- changes of weight (added value) [1, 12]: 0.62 ± 0.48
- left ankle swelling [1, 12]: 0.235 ± 0.013
- left foot (palm) swelling [1, 12]: 0.249 ± 0.126
- left toe swelling [1, 12]: 0.248 ± 0.136
- right foot palm swelling [1, 12]: 0.004 ± 0.003
- right toe swelling [1, 12]: 0.002 ± 0.042
- joint index score [1, 13]: 8.00 ± 0.00
- whole body (systemic) score [1, 13]: 4.50 ± 2.10
- changes of weight (added value) [1, 14]: 0.55 ± 0.02
- left ankle swelling [1, 14]: 0.218 ± 0.028
- left foot (palm) swelling [1, 14]: 0.234 ± 0.040
- left toe swelling [1, 14]: 0.309 ± 0.058
- right foot palm swelling [1, 14]: 0.013 ± 0.016
- right toe swelling [1, 14]: 0.004 ± 0.040
- joint index score [1, 15]: 6.50 ± 0.70
- whole body (systemic) score [1, 15]: 4.00 ± 1.40
- changes of weight (added value) [1, 16]: 0.77 ± 0.33
- left foot (palm) swelling [1, 16]: 0.258 ± 0.042
- left toe swelling [1, 16]: 0.285 ± 0.075
- right foot palm swelling [1, 16]: 0.008 ± 0.006
- right toe swelling [1, 16]: 0.009 ± 0.035
- joint index score [1, 17]: 6.50 ± 0.70
- whole body (systemic) score [1, 17]: 4.00 ± 1.40
- changes of weight (added value) [1, 18]: 1.02 ± 0.98
- left foot (palm) swelling [1, 18]: 0.235 ± 0.061
- left toe swelling [1, 18]: 0.290 ± 0.023
- right foot palm swelling [1, 18]: 0.010 ± 0.003
- right toe swelling [1, 18]: 0.003 ± 0.021
- joint index score [1, 19]: 6.50 ± 0.70
- whole body (systemic) score [1, 19]: 3.50 ± 0.70
- HE staining of ankle joints: pathological symptoms vs model group ([1]; mPEG-SC20k-HM-3 20 mg/kg): relieved to some extent
